Measured values taken from the supplement of paper PMC11451515.

Tested on: P12-Ichikawa
Test: cell viability relative to DMSO control; higher = less cytotoxic
Details: 48 h
Summary of the method: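 Viability, reported as a per-plate percentage of DMSO wells with cell-free wells as background, came from CellTiter-Glo One luminescence. Reading took place after 48 h at 37°C. Before that, NOMO1 or SEM (500 cells/well) or P12-Ichikawa (1000 cells/well) leukemia cells, adapted for at least four passages in each medium, were seeded in 1536-well plates (5 μl) and pin-dosed with library compounds in DMSO, 47 μM to 0.79 nM over 11 threefold points.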

[1] = HPLM + 10% dialyzed FBS, 0.000781 µM
[2] = HPLM + 10% dialyzed FBS, 0.00234 µM
[3] = HPLM + 10% dialyzed FBS, 0.00702 µM
[4] = HPLM + 10% dialyzed FBS, 0.0211 µM
[5] = HPLM + 10% dialyzed FBS, 0.0632 µM
[6] = HPLM + 10% dialyzed FBS, 0.19 µM
[7] = HPLM + 10% dialyzed FBS, 0.569 µM
[8] = HPLM + 10% dialyzed FBS, 1.71 µM
[9] = HPLM + 10% dialyzed FBS, 5.12 µM
[10] = HPLM + 10% dialyzed FBS, 15.4 µM
[11] = HPLM + 10% dialyzed FBS, 46.1 µM
[12] = RPMI 5 mM glucose + 10% FBS, 0.000781 µM
[13] = RPMI 5 mM glucose + 10% FBS, 0.00234 µM
[14] = RPMI 5 mM glucose + 10% FBS, 0.00702 µM
[15] = RPMI 5 mM glucose + 10% FBS, 0.0211 µM
[16] = RPMI 5 mM glucose + 10% FBS, 0.0632 µM
[17] = RPMI 5 mM glucose + 10% FBS, 0.19 µM
[18] = RPMI 5 mM glucose + 10% FBS, 0.569 µM
[19] = RPMI 5 mM glucose + 10% FBS, 1.71 µM
[20] = RPMI 5 mM glucose + 10% FBS, 5.12 µM
[21] = RPMI 5 mM glucose + 10% FBS, 15.4 µM
[22] = RPMI 5 mM glucose + 10% FBS, 46.1 µM
[23] = RPMI 5 mM glucose + 10% dialyzed FBS, 0.000781 µM
[24] = RPMI 5 mM glucose + 10% dialyzed FBS, 0.00234 µM
[25] = RPMI 5 mM glucose + 10% dialyzed FBS, 0.00702 µM
[26] = RPMI 5 mM glucose + 10% dialyzed FBS, 0.0211 µM
[27] = RPMI 5 mM glucose + 10% dialyzed FBS, 0.0632 µM
[28] = RPMI 5 mM glucose + 10% dialyzed FBS, 0.19 µM
[29] = RPMI 5 mM glucose + 10% dialyzed FBS, 0.569 µM
[30] = RPMI 5 mM glucose + 10% dialyzed FBS, 1.71 µM
[31] = RPMI 5 mM glucose + 10% dialyzed FBS, 5.12 µM
[32] = RPMI 5 mM glucose + 10% dialyzed FBS, 15.4 µM
[33] = RPMI 5 mM glucose + 10% dialyzed FBS, 46.1 µM

Compound | cell viability [1] [%] | cell viability [2] [%] | cell viability [3] [%] | cell viability [4] [%] | cell viability [5] [%] | cell viability [6] [%] | cell viability [7] [%] | cell viability [8] [%] | cell viability [9] [%] | cell viability [10] [%] | cell viability [11] [%] | cell viability [12] [%] | cell viability [13] [%] | cell viability [14] [%] | cell viability [15] [%] | cell viability [16] [%] | cell viability [17] [%] | cell viability [18] [%] | cell viability [19] [%] | cell viability [20] [%] | cell viability [21] [%] | cell viability [22] [%] | cell viability [23] [%] | cell viability [24] [%] | cell viability [25] [%] | cell viability [26] [%] | cell viability [27] [%] | cell viability [28] [%] | cell viability [29] [%] | cell viability [30] [%] | cell viability [31] [%] | cell viability [32] [%] | cell viability [33] [%]
CN1CCN(c2c(F)cc3c(=O)c(C(=O)O)cn(CCF)c3c2F)CC1 | 99.8 | 101 | 106 | 112 | 112 | 111 | 111 | 115 | 121 | 120 | 108 | 101 | 104 | 95.5 | 108 | 109 | 121 | 107 | 108 | 103 | 112 | 111 | 95.9 | 104 | 110 | 107 | 110 | 107 | 110 | 108 | 119 | 115 | 116
O=C(CC12CC3CC(CC(C3)C1)C2)Nc1cccc2nc(NCCNCCO)ccc12 | 87.7 | 88.7 | 84.5 | 90.8 | 88.1 | 91.2 | 98.2 | 88.1 | 95.7 | 92 | 56.7 | 84.7 | 87.2 | 85.6 | 89.4 | 88.8 | 86.3 | 87.4 | 81.9 | 89.2 | 94.1 | 57.6 | 82 | 86.6 | 85.7 | 99.4 | 91.4 | 94.8 | 90.3 | 85.8 | 77.6 | 93.8 | 42.4
O=C(O)CCCCC(CCSCc1ccccc1)SCc1ccccc1 (centres undefined) | 108 | 115 | 114 | 109 | 120 | 116 | 122 | 113 | 118 | 62.1 | 9.29 | 112 | 117 | 138 | 119 | 128 | 132 | 130 | 135 | 121 | 119 | 58.4 | 106 | 116 | 116 | 111 | 122 | 124 | 121 | 122 | 116 | 101 | 52.9
CC1=C(/C=C/C(C)=C/C=C/C(C)=C\C(=O)O)C(C)(C)CCC1 | 88.5 | 91.7 | 90.2 | 93.4 | 95.7 | 92.6 | 96.4 | 92.2 | 97.3 | 95.5 | 91.3 | 76.1 | 88.5 | 82.7 | 91 | 85.5 | 89.7 | 85.4 | 79.6 | 77.4 | 84.5 | 82.1 | 80.4 | 89.9 | 85 | 90 | 86.7 | 86.7 | 91.9 | 90.5 | 83.7 | 84.5 | 85.4
COc1ccc(C(=O)c2c(C)n(CCN3CCOCC3)c3ccccc23)cc1 | 94.2 | 104 | 101 | 95.2 | 106 | 111 | 103 | 109 | 98.3 | 111 | 111 | 89.3 | 91.1 | 95 | 100 | 97.5 | 96.7 | 101 | 113 | 84.4 | 110 | 98.9 | 96.5 | 93.2 | 99.4 | 98.2 | 99.3 | 102 | 98.4 | 93.8 | 104 | 112 | 109
COc1ccc(OC)c(-c2nnc3ccc(-c4ccc(OC)c(O[C@@H]5CCOC5)c4)nn23)c1 | 119 | 118 | 118 | 126 | 136 | 117 | 126 | 132 | 128 | 124 | 105 | – | – | – | – | – | – | – | – | – | – | – | – | – | – | – | – | – | – | – | – | – | –
CC\12CCC(=O)\C=C1CCC3C2CCC4(C)C3CCC4(O)C#C (centres undefined) | 102 | 101 | 99.2 | 93.9 | 97.9 | 93.4 | 92 | 92.3 | 94.2 | 80.6 | 92.3 | 99.3 | 102 | 97.7 | 100 | 96.8 | 97.1 | 93.1 | 96.6 | 85.7 | 81.8 | 90.3 | 83.5 | 85.6 | 88.9 | 91.1 | 95.7 | 93.6 | 91.1 | 88.6 | 85.4 | 84.2 | 83
O=C(CCc1ccc(O)cc1)c1c(O)cc(O)cc1O | 94.5 | 106 | 104 | 99.5 | 103 | 111 | 110 | 116 | 112 | 103 | 110 | 89.5 | 91 | 100 | 103 | 90.2 | 101 | 106 | 104 | 105 | 107 | 91.1 | 81.6 | 92 | 93 | 96.7 | 100 | 98.7 | 103 | 94.3 | 102 | 90.4 | 99.4
Cc1nc2cc(C(=O)N3CCC4(CC3)CC(=O)c3c(cnn3C(C)C)C4)ccc2[nH]1 | 103 | 121 | 107 | 120 | 116 | 119 | 122 | 110 | 93.3 | 112 | 18 | – | – | – | – | – | – | – | – | – | – | – | – | – | – | – | – | – | – | – | – | – | –
O=C(Nc1c[nH]nc1-c1nc2cc(CN3CCOCC3)ccc2[nH]1)NC1CC1 | 93.4 | 101 | 101 | 97.6 | 53.8 | 12.7 | 23.9 | 38.5 | 51.6 | 36.5 | 19.3 | 97 | 103 | 101 | 99.8 | 59 | 16 | 38 | 47.3 | 45.1 | 38.6 | 14.1 | 99 | 98.6 | 91.5 | 102 | 65.2 | 24.8 | 45.8 | 58.5 | 60.2 | 46.5 | 14.2
CC[C@]12CC[C@H]3[C@@H](CCC/4=C/C(=O)CC[C@H]34)[C@@H]1CC[C@@]2(O)C#C | 94.2 | 85.6 | 83.8 | 87.2 | 104 | 89.2 | 68.9 | 79.3 | 85.5 | 82.6 | 90.5 | 86.3 | 88.3 | 87.2 | 90.4 | 85.1 | 83.9 | 75.1 | 88 | 86.1 | 79.6 | 83.7 | 83.3 | 79.5 | 88.3 | 79.3 | 86.7 | 78 | 81.3 | 77 | 83.1 | 73 | 79.7
CCN(CC)CCOc1ccc(Cc2ccccc2)cc1 | 103 | 104 | 102 | 101 | 98.9 | 103 | 105 | 95.4 | 85.2 | 29.8 | 22.8 | 101 | 95.9 | 95.1 | 95.9 | 99.4 | 98.5 | 102 | 93 | 85.7 | 77.6 | 79.3 | 87.1 | 96 | 86.5 | 97.8 | 93.4 | 89.8 | 99.5 | 93.1 | 92 | 52 | 34.4
COc1cc(Nc2c(C#N)cnc3cc(OCCCN4CCN(C)CC4)c(OC)cc23)c(Cl)cc1Cl | 112 | 112 | 110 | 110 | 117 | 120 | 120 | 97.6 | 42.4 | 4.36 | 4.46 | 103 | 123 | 112 | 115 | 121 | 122 | 122 | 109 | 54.2 | 6.74 | 5.61 | 111 | 110 | 126 | 128 | 124 | 127 | 129 | 105 | 64.5 | 7.05 | 5.93
N#C/C(=C\c1ccc(O)c(O)c1)C(=O)NCc1ccccc1 | 101 | 96.5 | 103 | 106 | 104 | 106 | 103 | 100 | 102 | 68.5 | 47.4 | 105 | 106 | 101 | 101 | 103 | 94.3 | 103 | 97.6 | 87 | 68.2 | 36.7 | 95.2 | 96.1 | 99.5 | 97 | 98.7 | 88.3 | 93.1 | 94.7 | 80.3 | 67.7 | 41.5
O=C([O-])C[C@H](O)C[C@H](O)/C=C/c1c(C2CC2)nc2ccccc2c1-c1ccc(F)cc1 | 107 | 111 | 115 | 110 | 117 | 114 | 110 | 103 | 69.3 | 49.1 | 26.2 | 110 | 117 | 116 | 113 | 124 | 116 | 105 | 87.9 | 52.3 | 19.5 | 14.7 | 113 | 114 | 113 | 107 | 119 | 116 | 115 | 93.6 | 58.2 | 36.9 | 19.3
NC(=O)[C@H]1CCS[C@@H]2C[C@]3(CCCN3C(=O)Cc3ccc(NC(=O)COc4ccc(Cl)cc4Cl)cc3)C(=O)N12 | 113 | 115 | 120 | 110 | 114 | 101 | 73.1 | 16.5 | 18.6 | 18.5 | 12.8 | 110 | 109 | 120 | 111 | 128 | 110 | 106 | 40.3 | 16.5 | 22.9 | 17.5 | 124 | 120 | 130 | 134 | 127 | 125 | 116 | 70.3 | 28.7 | 39.2 | 23.8
